Data from BindingDB's records for patent US12128018 (Kdac Therapeutics, 2024).
pIC50: −log10 of the molar value.

Columns and labels:
Experiment in all cases: Inhibition of Histone Deacetylase Enzymatic Activity
Histone deacetylase 8 = molecular target: T1, Histone deacetylase 8 (Homo sapiens, UniProt Q9BY41)
T1 sequence (Q9BY41 whole entry): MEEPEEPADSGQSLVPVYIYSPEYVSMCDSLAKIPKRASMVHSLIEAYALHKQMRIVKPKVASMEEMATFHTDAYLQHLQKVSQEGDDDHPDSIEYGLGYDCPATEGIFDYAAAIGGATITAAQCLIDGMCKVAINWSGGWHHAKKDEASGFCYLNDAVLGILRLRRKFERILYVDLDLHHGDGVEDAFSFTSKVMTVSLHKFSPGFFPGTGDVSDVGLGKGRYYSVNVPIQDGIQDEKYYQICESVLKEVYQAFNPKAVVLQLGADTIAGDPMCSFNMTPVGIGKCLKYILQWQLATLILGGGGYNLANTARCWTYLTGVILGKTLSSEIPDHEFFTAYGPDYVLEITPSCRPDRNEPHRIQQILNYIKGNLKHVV
Protocol: (§1) Its final concentration in the assay for HDACs 1,2,3,6 is 2 μM.Substrate B was prepared as 2 mM in 100% DMSO. Its final concentration in the assay for HDACs 4,5,7,8,9 is 2 μM.LBH was used as quench inhibitor to stop the reaction at the end point.

Histone deacetylase 6 = molecular target: T2, Histone deacetylase 6 (Homo sapiens, UniProt Q9UBN7)
T2 sequence (Q9UBN7 whole entry): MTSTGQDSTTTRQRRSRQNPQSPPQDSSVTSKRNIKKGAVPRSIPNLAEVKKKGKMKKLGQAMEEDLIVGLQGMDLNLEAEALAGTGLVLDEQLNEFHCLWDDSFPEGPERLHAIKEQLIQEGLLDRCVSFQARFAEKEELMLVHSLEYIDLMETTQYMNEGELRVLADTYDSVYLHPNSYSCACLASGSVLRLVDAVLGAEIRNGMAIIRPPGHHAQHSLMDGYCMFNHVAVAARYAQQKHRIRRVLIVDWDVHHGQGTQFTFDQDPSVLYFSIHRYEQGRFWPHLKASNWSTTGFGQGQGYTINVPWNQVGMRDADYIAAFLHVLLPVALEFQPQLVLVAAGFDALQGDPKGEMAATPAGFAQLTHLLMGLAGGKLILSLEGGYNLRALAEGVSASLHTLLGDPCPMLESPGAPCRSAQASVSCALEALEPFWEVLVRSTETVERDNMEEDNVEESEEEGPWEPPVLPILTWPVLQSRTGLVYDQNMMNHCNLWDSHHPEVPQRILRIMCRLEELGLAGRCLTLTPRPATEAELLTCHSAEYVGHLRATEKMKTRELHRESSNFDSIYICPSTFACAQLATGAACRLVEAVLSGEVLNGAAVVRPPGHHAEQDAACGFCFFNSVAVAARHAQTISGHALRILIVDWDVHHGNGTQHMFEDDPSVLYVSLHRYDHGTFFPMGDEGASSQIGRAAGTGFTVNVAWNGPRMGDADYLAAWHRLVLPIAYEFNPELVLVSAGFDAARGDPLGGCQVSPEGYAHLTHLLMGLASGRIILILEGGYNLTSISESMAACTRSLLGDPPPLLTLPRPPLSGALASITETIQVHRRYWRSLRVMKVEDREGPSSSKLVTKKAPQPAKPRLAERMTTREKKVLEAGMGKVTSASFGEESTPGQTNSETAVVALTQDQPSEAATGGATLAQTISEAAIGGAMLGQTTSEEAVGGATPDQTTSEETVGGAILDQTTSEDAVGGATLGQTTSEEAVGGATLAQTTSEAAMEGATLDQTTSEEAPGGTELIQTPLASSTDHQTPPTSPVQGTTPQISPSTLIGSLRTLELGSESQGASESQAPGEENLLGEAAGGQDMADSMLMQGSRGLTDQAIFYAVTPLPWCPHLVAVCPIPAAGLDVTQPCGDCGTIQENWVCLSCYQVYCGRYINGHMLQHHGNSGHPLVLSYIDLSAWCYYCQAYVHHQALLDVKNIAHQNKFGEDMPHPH
Protocol: as §1

Histone deacetylase 9 = Histone deacetylase 9 (Homo sapiens, UniProt Q9UKV0)
Histone deacetylase 9, sequence (Q9UKV0 whole entry): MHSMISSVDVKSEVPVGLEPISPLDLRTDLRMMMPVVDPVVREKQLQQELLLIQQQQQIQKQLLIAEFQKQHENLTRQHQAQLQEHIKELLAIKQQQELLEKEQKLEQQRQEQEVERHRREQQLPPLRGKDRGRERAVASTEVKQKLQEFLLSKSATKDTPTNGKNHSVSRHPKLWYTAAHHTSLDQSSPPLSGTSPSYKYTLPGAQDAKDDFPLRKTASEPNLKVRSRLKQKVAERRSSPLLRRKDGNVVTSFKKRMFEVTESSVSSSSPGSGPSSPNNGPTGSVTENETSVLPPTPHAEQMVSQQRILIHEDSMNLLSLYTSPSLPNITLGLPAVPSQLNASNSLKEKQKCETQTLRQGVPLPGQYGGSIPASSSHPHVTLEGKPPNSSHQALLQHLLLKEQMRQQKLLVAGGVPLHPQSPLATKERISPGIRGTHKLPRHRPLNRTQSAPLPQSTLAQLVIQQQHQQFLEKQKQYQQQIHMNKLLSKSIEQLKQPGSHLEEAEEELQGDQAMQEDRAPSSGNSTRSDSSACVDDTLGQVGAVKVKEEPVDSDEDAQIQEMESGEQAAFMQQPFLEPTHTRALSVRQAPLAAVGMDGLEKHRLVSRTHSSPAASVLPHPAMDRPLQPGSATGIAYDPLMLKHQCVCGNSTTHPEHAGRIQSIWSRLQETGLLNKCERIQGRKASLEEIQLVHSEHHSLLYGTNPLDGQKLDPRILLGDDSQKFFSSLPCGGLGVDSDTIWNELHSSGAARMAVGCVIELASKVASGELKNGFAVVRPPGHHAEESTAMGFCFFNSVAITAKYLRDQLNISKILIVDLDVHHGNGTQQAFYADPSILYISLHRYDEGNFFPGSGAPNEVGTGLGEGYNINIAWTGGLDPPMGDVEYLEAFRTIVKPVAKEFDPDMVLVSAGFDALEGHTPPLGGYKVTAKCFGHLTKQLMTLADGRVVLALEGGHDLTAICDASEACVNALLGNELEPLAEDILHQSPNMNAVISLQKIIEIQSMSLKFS
Protocol: as §1

Histone deacetylase 7 = molecular target: T3, Histone deacetylase 7 (Homo sapiens, UniProt Q8WUI4)
T3 sequence (Q8WUI4 whole entry): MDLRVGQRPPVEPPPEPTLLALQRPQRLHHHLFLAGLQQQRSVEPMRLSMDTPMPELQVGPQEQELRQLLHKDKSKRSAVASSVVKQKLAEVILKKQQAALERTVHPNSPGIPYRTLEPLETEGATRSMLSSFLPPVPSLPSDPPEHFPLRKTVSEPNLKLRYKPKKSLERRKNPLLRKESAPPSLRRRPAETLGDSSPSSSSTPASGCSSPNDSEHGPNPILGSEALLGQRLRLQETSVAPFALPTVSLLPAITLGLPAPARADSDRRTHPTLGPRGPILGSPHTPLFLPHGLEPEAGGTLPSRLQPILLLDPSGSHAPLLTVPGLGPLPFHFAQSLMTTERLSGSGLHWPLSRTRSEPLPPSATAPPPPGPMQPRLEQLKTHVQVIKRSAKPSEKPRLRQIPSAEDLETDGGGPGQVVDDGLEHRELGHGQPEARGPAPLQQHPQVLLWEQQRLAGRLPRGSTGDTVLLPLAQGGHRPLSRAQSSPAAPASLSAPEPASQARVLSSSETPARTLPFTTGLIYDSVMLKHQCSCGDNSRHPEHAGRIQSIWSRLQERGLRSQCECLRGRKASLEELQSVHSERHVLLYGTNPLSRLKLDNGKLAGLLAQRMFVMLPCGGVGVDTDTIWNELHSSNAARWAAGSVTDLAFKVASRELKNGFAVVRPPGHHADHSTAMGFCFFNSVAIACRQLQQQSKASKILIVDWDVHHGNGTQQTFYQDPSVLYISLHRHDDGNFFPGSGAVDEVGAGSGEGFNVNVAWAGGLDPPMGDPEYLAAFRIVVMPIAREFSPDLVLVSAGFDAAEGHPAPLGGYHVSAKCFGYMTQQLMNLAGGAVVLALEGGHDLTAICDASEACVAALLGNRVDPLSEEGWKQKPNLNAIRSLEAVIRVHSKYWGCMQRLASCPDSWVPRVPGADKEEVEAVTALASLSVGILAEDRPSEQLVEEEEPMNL
Protocol: as §1

Histone deacetylase 4 = Histone deacetylase 4 (Homo sapiens, UniProt P56524)
Histone deacetylase 4, sequence (P56524 whole entry): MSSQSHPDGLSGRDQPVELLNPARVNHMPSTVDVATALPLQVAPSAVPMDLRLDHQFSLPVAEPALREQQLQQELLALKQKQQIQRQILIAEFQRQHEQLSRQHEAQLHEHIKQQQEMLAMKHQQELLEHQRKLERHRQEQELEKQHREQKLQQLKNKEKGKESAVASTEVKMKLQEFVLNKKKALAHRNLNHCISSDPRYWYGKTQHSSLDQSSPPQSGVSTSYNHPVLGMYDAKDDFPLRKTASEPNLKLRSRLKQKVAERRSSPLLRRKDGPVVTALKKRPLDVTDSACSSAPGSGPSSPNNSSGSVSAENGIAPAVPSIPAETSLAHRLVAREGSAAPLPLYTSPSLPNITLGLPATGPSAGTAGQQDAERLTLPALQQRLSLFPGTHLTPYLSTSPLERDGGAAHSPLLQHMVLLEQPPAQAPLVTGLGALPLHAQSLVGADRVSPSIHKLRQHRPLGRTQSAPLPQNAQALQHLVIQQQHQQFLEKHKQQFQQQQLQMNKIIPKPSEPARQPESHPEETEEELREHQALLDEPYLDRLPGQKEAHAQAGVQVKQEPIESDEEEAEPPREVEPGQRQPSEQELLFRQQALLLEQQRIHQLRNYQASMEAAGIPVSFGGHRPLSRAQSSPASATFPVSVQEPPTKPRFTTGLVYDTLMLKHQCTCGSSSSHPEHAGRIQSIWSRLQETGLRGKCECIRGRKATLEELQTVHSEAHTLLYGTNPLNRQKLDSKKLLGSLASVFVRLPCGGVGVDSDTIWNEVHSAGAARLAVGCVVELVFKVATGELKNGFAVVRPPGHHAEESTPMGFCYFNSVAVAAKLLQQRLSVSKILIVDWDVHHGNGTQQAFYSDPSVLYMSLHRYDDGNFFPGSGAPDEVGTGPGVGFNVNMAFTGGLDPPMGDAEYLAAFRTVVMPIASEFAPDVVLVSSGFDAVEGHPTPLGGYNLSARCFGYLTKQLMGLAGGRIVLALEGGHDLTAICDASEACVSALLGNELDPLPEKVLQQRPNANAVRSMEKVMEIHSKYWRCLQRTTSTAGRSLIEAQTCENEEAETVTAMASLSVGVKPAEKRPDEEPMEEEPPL
Protocol: as §1

Histone deacetylase 5 = Histone deacetylase 5 (Homo sapiens, UniProt Q9UQL6)
Histone deacetylase 5, sequence (Q9UQL6 whole entry): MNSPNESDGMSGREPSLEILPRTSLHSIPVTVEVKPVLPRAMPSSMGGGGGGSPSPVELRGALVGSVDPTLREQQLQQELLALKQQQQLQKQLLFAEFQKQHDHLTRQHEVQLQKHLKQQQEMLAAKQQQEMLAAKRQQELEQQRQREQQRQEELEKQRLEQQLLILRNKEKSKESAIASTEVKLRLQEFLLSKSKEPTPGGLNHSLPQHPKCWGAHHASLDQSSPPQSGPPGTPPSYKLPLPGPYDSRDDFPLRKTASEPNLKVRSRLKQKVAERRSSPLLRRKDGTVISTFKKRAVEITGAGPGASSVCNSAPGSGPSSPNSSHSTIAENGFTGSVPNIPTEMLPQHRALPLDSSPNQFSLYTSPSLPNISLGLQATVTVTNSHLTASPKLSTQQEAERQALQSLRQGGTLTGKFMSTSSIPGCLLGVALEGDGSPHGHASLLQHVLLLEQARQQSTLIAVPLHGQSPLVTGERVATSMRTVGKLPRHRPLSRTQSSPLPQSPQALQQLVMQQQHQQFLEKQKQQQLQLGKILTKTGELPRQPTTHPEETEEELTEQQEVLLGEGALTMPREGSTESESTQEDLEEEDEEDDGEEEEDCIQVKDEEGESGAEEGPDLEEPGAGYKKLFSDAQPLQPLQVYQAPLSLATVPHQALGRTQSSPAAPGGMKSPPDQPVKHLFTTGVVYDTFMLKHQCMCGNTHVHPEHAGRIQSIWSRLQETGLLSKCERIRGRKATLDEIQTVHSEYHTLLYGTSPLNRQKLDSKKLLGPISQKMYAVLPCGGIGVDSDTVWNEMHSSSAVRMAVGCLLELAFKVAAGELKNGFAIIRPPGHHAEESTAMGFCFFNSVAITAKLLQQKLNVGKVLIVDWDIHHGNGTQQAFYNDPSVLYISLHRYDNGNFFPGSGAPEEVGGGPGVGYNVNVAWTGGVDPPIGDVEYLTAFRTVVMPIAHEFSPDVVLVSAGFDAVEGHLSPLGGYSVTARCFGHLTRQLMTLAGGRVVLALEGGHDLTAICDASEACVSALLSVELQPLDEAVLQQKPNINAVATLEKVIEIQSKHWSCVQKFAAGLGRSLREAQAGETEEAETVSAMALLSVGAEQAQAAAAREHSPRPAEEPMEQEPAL
Protocol: as §1

Measured: pIC50

CC(=O)Nc1ccc(C(=O)Nc2ccc(F)cc2N)cc1 [US12128018, Compound I-1]
< 4.52: all assays above
